Data published in PubChem BioAssay AID2060492 (Molecular Pharmacology Branch, DTP, NCI, 2025).

Tested on: 695427-040-R-J1-PDC complex spheroids, viability percent T/C
Test: Anticancer human tumor 695427-040-R-J1-PDC patient-derived colon adenocarcinoma cell line growth inhibition [GQUAD]
Settings: for IC50: curve of first compound; for viability, T/C: stronger effect = lower value
How it was run: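 Multi-cell-type spheroids of tumor cells with HUVEC and mesenchymal stem cells, treated with drug combinations. Concentrations descend in half-log steps from near clinical Cmax, or from 10 microM where Cmax is unknown; viability read-out.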

[1] = second compound 0.0316 µM, first compound 0.0316 µM
[2] = second compound 0.0316 µM, first compound 0.1 µM
[3] = second compound 0.0316 µM, first compound 0.316 µM
[4] = second compound 0.0316 µM, first compound 1 µM
[5] = second compound 0.0316 µM, first compound 3.16 µM
[6] = second compound 0.0316 µM, first compound 10 µM
[7] = second compound 0.1 µM, first compound 0.0316 µM
[8] = second compound 0.1 µM, first compound 0.1 µM
[9] = second compound 0.1 µM, first compound 0.316 µM
[10] = second compound 0.1 µM, first compound 1 µM
[11] = second compound 0.1 µM, first compound 3.16 µM
[12] = second compound 0.1 µM, first compound 10 µM
[13] = second compound 0.316 µM, first compound 0.0316 µM
[14] = second compound 0.316 µM, first compound 0.1 µM
[15] = second compound 0.316 µM, first compound 0.316 µM
[16] = second compound 0.316 µM, first compound 1 µM
[17] = second compound 0.316 µM, first compound 3.16 µM
[18] = second compound 0.316 µM, first compound 10 µM
[19] = second compound 1 µM, first compound 0.0316 µM
[20] = second compound 1 µM, first compound 0.1 µM
[21] = second compound 1 µM, first compound 0.316 µM
[22] = second compound 1 µM, first compound 1 µM
[23] = second compound 1 µM, first compound 3.16 µM
[24] = second compound 1 µM, first compound 10 µM
[25] = second compound 3.16 µM, first compound 0.0316 µM
[26] = second compound 3.16 µM, first compound 0.1 µM
[27] = second compound 3.16 µM, first compound 0.316 µM
[28] = second compound 3.16 µM, first compound 1 µM
[29] = second compound 3.16 µM, first compound 3.16 µM
[30] = second compound 3.16 µM, first compound 10 µM
[31] = second compound 10 µM, first compound 0.0316 µM
[32] = second compound 10 µM, first compound 0.1 µM
[33] = second compound 10 µM, first compound 0.316 µM
[34] = second compound 10 µM, first compound 1 µM
[35] = second compound 10 µM, first compound 3.16 µM
[36] = second compound 10 µM, first compound 10 µM
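Further: spheroids exposed to compounds for seven days before readout.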

With O=c1[nH]cc(F)c(=O)[nH]1 + CN(C)c1ccc(Nc2c3ccc(NC(=O)CCN4CCCC4)cc3nc3cc(NC(=O)CCN4CCCC4)ccc23)cc1 the IC50 (second compound 0.0316 µM) was over 10000 nM, the IC50 (second compound 0.1 µM) was over 10000 nM and the IC50 (second compound 0.316 µM) was over 10000 nM. It also gave an IC50 (second compound 1 µM) of over 10000 nM, an IC50 (second compound 3.16 µM) of over 10000 nM and an IC50 (second compound 10 µM) of over 10000 nM. For the same compound, the viability, T/C [1] was 101%, the viability, T/C [2] was 90.5% and the viability, T/C [3] was 90.5%. It also gave a viability, T/C [4] of 92.6%, a viability, T/C [5] of 95.5% and a viability, T/C [6] of 97.5%. For the same compound, the viability, T/C [7] was 103%, the viability, T/C [8] was 90.1% and the viability, T/C [9] was 94.9%. It also gave a viability, T/C [10] of 83.8%, a viability, T/C [11] of 99.8% and a viability, T/C [12] of 91.5%. For the same compound, the viability, T/C [13] was 106%, the viability, T/C [14] was 100% and the viability, T/C [15] was 99.7%. The viability, T/C [16] was 92.8%, the viability, T/C [17] was 94.7% and the viability, T/C [18] was 94.5%. For the same compound, the viability, T/C [19] was 103%, the viability, T/C [20] was 96.9% and the viability, T/C [21] was 98%. It also gave a viability, T/C [22] of 96.9%, a viability, T/C [23] of 97.7% and a viability, T/C [24] of 92.5%. For the same compound, the viability, T/C [25] was 92.1%, the viability, T/C [26] was 100% and the viability, T/C [27] was 90.3%. For the same compound, the viability, T/C [28] was 88.3%, the viability, T/C [29] was 90.5% and the viability, T/C [30] was 91%. It also gave a viability, T/C [31] of 87.8%, a viability, T/C [32] of 92.6% and a viability, T/C [33] of 78%. The viability, T/C [34] was 82.4%, the viability, T/C [35] was 85.7% and the viability, T/C [36] was 83.4%.
O=C(c1cc(Cc2n[nH]c(=O)c3ccccc23)ccc1F)N1CCN(C(=O)C2CC2)CC1 + Cc1[nH]c2ccc(F)cc2c1-c1nc2c3cccnc3c3ncccc3c2[nH]1 was tested, and the IC50 (second compound 0.0316 µM) was over 10000 nM, the IC50 (second compound 0.1 µM) was over 10000 nM and the IC50 (second compound 0.316 µM) was over 10000 nM. For the same compound, the IC50 (second compound 1 µM) was over 10000 nM, the IC50 (second compound 3.16 µM) was under 31.6 nM and the IC50 (second compound 10 µM) was over 10000 nM. The viability, T/C [1] was 97.7%, the viability, T/C [2] was 105% and the viability, T/C [3] was 101%. For the same compound, the viability, T/C [4] was 82.3%, the viability, T/C [5] was 94.6% and the viability, T/C [6] was 95.2%. For the same compound, the viability, T/C [7] was 114%, the viability, T/C [8] was 93.4% and the viability, T/C [9] was 97.7%. It also gave a viability, T/C [10] of 78.3%, a viability, T/C [11] of 93.2% and a viability, T/C [12] of 84.9%. The viability, T/C [13] was 105%, the viability, T/C [14] was 89.1% and the viability, T/C [15] was 91.5%. It also gave a viability, T/C [16] of 91.1%, a viability, T/C [17] of 96% and a viability, T/C [18] of 102%. It also gave a viability, T/C [19] of 84.3%, a viability, T/C [20] of 87.4% and a viability, T/C [21] of 73.1%. The viability, T/C [22] was 78.5%, the viability, T/C [23] was 99.5% and the viability, T/C [24] was 79.2%. The viability, T/C [25] was 47.6%, the viability, T/C [26] was 87.2% and the viability, T/C [27] was 74.8%. For the same compound, the viability, T/C [28] was 69.1%, the viability, T/C [29] was 91% and the viability, T/C [30] was 87.4%. It also gave a viability, T/C [31] of 62.6%, a viability, T/C [32] of 69.1% and a viability, T/C [33] of 92.1%. For the same compound, the viability, T/C [34] was 82.5%, the viability, T/C [35] was 75.9% and the viability, T/C [36] was 89.8%.
O=C(NO)c1cnc(N2CCN(S(=O)(=O)c3ccc4ccccc4c3)CC2)nc1 + CN(C)c1ccc(Nc2c3ccc(NC(=O)CCN4CCCC4)cc3nc3cc(NC(=O)CCN4CCCC4)ccc23)cc1 showed an IC50 (second compound 0.0316 µM) of 429 nM, an IC50 (second compound 0.1 µM) of 461 nM and an IC50 (second compound 0.316 µM) of 431 nM. For the same compound, the IC50 (second compound 1 µM) was 401 nM, the IC50 (second compound 3.16 µM) was 447 nM and the IC50 (second compound 10 µM) was 366 nM. The viability, T/C [1] was 98.9%, the viability, T/C [2] was 93.1% and the viability, T/C [3] was 66.5%. The viability, T/C [4] was 4.08%, the viability, T/C [5] was 0.2% and the viability, T/C [6] was 0.24%. It also gave a viability, T/C [7] of 107%, a viability, T/C [8] of 91.7% and a viability, T/C [9] of 72.4%. It also gave a viability, T/C [10] of 3.81%, a viability, T/C [11] of 0.24% and a viability, T/C [12] of 0.42%. The viability, T/C [13] was 100%, the viability, T/C [14] was 101% and the viability, T/C [15] was 67.1%. The viability, T/C [16] was 3.52%, the viability, T/C [17] was 0.21% and the viability, T/C [18] was 0.44%. For the same compound, the viability, T/C [19] was 97.1%, the viability, T/C [20] was 87.9% and the viability, T/C [21] was 62.3%. For the same compound, the viability, T/C [22] was 3.42%, the viability, T/C [23] was 0.2% and the viability, T/C [24] was 0.29%. For the same compound, the viability, T/C [25] was 90.7%, the viability, T/C [26] was 89.5% and the viability, T/C [27] was 70%. It also gave a viability, T/C [28] of 3.74%, a viability, T/C [29] of 0.28% and a viability, T/C [30] of 0.31%. For the same compound, the viability, T/C [31] was 84%, the viability, T/C [32] was 84.4% and the viability, T/C [33] was 56.8%. It also gave a viability, T/C [34] of 3.35%, a viability, T/C [35] of 0.35% and a viability, T/C [36] of 0.32%.
